Consider three compounds from ChEMBL document CHEMBL5715954, “Silencing c-Myc translation as a therapeutic strategy through targeting PI3Kδ and CK1ε in hematological malignancies” (Blood, 2017).

Common to all, as to design: scale not given: the % may be the effect or the level left
For assay [1], the target named is Cyclin-dependent kinase 2/cyclin E1 (Homo sapiens) (UniProt P24864+P24941). The assay can be described thus: Inhibition of human CDK2/cyclin E assessed as enzyme activity at 1 uM using RB Protein as substrate preincubated for 20 mins followed by [gamma-33P]-ATP addition and measured after 120 mins by radiometric Hot-SpotSM Kinase assay relative to control. Format: protein-complex assay.

The target of assay [2] is Activin receptor type-1-like (Homo sapiens) (UniProt P37023). The assay can be described thus: Inhibition of human ALK1 assessed as enzyme activity at 1 uM using casein as substrate preincubated for 20 mins followed by [gamma-33P]-ATP addition and measured after 120 mins by radiometric Hot-SpotSM Kinase assay relative to control.
Sequence of Activin receptor type-1-like (Homo sapiens) (P37023 whole entry): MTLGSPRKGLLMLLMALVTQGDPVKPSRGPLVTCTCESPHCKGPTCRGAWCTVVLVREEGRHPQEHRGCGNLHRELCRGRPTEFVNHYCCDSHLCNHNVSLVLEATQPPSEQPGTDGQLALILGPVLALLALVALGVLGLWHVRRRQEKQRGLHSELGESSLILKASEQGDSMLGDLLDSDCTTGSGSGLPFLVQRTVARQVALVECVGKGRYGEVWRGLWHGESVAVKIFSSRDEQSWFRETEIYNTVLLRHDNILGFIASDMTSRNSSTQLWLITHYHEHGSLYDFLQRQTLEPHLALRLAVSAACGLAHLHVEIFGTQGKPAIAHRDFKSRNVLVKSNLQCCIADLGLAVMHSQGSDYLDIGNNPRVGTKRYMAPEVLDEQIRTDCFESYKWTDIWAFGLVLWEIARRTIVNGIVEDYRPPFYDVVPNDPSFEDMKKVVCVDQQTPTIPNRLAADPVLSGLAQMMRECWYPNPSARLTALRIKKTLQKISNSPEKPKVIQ
Assay [3] has as its target T1, Tyrosine-protein kinase JAK3 (Homo sapiens) (UniProt P52333).
T1 sequence (whole entry): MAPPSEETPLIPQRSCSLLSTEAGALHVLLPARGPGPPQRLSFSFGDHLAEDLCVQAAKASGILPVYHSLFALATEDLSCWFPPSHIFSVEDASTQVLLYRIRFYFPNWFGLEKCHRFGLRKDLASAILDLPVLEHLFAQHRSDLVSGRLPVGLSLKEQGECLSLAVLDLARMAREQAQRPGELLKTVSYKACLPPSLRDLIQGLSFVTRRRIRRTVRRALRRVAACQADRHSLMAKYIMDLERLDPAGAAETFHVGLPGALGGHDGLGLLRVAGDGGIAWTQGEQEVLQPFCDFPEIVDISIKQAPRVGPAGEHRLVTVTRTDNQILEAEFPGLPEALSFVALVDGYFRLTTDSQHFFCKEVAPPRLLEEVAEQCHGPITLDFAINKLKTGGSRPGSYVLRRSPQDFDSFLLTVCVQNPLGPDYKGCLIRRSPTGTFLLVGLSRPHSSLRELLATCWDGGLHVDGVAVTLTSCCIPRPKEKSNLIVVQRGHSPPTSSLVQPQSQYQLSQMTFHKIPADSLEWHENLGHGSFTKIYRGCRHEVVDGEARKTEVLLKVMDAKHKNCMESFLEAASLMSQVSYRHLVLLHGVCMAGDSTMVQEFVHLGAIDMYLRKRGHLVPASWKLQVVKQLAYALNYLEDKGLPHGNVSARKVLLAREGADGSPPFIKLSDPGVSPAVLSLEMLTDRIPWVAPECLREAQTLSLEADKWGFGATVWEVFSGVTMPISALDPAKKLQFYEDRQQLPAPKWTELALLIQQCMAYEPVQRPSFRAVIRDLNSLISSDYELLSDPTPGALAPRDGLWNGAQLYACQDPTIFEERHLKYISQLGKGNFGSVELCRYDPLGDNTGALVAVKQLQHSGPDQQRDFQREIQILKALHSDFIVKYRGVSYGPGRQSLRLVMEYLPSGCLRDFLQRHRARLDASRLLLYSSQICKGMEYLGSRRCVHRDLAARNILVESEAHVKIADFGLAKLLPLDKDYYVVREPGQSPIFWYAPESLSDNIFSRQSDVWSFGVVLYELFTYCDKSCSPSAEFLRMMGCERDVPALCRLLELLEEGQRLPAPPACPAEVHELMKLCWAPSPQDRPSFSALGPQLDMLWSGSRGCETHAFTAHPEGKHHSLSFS
As to the kind of experiment: Inhibition of human JAK3 assessed as enzyme activity at 1 uM using GGEEEEYFELVKKKK as substrate preincubated for 20 mins followed by [gamma-33P]-ATP addition and measured after 120 mins by radiometric Hot-SpotSM Kinase assay relative to control.

In assay [4] the target is Mitogen-activated protein kinase kinase kinase 9 (Homo sapiens) (UniProt P80192). The assay can be described thus: Inhibition of human MLK1 assessed as enzyme activity at 1 uM using casein as substrate preincubated for 20 mins followed by [gamma-33P]-ATP addition and measured after 120 mins by radiometric Hot-SpotSM Kinase assay relative to control.
Sequence of Mitogen-activated protein kinase kinase kinase 9 (Homo sapiens) (P80192 whole entry, looked up): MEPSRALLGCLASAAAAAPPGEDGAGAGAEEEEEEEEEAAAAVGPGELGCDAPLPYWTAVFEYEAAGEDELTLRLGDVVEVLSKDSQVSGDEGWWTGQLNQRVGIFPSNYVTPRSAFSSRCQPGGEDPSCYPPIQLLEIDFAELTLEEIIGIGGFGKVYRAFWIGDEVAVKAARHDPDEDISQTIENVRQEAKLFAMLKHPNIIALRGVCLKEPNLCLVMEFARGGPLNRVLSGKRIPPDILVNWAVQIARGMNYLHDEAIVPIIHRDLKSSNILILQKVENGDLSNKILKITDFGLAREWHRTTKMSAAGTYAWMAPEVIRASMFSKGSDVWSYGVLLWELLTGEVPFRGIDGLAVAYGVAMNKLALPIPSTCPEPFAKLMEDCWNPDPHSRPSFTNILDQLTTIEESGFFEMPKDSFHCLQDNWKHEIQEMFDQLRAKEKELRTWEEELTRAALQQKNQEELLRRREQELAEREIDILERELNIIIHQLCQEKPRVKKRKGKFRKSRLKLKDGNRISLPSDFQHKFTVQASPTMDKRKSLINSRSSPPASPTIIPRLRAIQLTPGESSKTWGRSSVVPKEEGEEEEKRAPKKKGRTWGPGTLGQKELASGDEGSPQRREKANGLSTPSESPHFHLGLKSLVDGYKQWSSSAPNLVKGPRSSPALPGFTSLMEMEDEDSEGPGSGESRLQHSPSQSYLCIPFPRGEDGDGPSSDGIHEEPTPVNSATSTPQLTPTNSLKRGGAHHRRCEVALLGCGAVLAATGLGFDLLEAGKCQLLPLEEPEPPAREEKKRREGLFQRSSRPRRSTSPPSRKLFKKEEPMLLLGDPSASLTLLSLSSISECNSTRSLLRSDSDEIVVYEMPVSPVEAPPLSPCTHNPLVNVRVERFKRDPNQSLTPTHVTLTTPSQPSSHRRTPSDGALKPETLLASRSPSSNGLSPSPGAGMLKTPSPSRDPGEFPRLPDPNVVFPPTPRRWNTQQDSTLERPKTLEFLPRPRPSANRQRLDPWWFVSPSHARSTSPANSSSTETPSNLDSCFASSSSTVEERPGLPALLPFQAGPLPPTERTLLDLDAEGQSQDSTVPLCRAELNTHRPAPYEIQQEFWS
For assay [5], the target named is T2, 3-phosphoinositide-dependent protein kinase 1 (Homo sapiens) (UniProt O15530).
T2 sequence (whole entry): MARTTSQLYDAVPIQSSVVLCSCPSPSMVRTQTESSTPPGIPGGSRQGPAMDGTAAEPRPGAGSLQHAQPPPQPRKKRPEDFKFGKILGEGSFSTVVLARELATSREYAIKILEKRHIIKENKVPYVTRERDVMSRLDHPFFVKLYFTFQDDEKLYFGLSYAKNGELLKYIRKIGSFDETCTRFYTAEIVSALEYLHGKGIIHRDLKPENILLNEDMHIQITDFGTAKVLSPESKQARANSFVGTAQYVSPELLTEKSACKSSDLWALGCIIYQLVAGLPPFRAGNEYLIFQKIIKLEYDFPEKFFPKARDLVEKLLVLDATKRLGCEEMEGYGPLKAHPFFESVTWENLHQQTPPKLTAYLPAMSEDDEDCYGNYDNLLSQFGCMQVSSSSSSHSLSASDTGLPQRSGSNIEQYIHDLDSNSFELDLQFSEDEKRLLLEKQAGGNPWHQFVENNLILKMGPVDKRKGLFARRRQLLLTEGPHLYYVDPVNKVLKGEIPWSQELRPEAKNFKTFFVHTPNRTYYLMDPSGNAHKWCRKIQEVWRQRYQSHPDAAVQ
As to the kind of experiment: Inhibition of human PDK1 assessed as enzyme activity at 1 uM using KTFCGTPEYLAPEVRREPRILSEEEQEMFRDFDYIADWC as substrate preincubated for 20 mins followed by [gamma-33P]-ATP addition and measured after 120 mins by radiometric Hot-SpotSM Kinase assay relative to control.

Assay [6] concerns the target T3, Testis-specific serine/threonine-protein kinase 1 (Homo sapiens) (UniProt Q9BXA7).
T3 sequence (whole entry): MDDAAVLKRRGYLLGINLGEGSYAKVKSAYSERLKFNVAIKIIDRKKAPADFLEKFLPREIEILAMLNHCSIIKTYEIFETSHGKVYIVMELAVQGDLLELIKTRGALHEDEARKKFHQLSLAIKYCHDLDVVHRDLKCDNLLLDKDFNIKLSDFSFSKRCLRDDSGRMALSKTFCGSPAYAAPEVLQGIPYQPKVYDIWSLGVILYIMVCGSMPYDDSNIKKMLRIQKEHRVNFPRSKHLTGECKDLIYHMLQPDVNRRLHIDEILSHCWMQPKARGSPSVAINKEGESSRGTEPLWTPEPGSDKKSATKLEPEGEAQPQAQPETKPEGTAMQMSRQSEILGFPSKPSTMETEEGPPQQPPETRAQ
The assay can be described thus: Inhibition of human STK22D assessed as enzyme activity at 1 uM using KKKVSRSGLYRSPSMPENLNRPR as substrate preincubated for 20 mins followed by [gamma-33P]-ATP addition and measured after 120 mins by radiometric Hot-SpotSM Kinase assay relative to control.

Assay [7] concerns the target BDNF/NT-3 growth factors receptor (Homo sapiens) (UniProt Q16620). The assay can be described thus: Inhibition of human TRKB assessed as enzyme activity at 1 uM using poly[Glu:Tyr] (4:1) as substrate preincubated for 20 mins followed by [gamma-33P]-ATP addition and measured after 120 mins by radiometric Hot-SpotSM Kinase assay relative to control.
Assay [8] has as its target Mitogen-activated protein kinase 8 (Homo sapiens) (UniProt P45983). The assay can be described thus: Inhibition of human JNK1-alpha1 assessed as enzyme activity at 1 uM using ATF2 as substrate preincubated for 20 mins followed by [gamma-33P]-ATP addition and measured after 120 mins by radiometric Hot-SpotSM Kinase assay relative to control.

Sequence of Mitogen-activated protein kinase 8 (Homo sapiens) (P45983 whole entry): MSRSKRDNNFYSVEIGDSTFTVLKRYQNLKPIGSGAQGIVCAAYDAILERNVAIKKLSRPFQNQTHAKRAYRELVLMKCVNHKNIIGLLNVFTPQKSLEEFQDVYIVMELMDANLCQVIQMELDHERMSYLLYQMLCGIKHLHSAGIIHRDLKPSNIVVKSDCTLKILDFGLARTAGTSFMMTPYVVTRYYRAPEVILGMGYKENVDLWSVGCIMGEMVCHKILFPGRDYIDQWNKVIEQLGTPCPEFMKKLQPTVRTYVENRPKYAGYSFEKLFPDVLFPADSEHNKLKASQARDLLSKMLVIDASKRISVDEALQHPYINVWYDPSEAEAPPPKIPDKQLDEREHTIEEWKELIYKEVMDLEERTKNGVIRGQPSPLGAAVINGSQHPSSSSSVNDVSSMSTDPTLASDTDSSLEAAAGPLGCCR
Sequence of BDNF/NT-3 growth factors receptor (Homo sapiens) (Q16620 32-822 limits assumed): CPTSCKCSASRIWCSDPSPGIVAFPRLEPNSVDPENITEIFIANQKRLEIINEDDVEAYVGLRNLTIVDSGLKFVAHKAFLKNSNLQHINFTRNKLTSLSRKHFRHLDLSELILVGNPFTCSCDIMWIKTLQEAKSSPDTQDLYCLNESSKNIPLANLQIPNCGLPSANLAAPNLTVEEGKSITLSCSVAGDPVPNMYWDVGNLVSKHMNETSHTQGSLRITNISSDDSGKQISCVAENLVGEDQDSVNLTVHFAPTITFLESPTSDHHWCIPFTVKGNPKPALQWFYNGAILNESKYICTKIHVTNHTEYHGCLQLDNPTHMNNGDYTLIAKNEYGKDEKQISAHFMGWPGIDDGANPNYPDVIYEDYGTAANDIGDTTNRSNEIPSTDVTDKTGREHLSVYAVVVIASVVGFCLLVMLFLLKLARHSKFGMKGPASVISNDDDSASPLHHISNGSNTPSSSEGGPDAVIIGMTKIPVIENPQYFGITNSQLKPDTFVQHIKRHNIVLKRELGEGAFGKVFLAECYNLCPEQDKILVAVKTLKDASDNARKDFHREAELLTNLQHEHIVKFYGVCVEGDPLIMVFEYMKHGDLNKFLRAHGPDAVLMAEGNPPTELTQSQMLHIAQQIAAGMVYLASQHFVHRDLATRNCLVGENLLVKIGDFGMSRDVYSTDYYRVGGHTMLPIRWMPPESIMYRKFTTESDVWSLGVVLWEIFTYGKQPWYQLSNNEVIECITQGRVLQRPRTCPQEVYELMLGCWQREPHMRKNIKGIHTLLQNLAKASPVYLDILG

For `C[C@H](Nc1ncnc2nc[nH]c12)c1cc2cccc(Cl)c2c(=O)n1-c1ccccc1`, the Activity in assay [1] is 95.6%; in assay [2] it was 96.4%; in assay [3], 95.2%; in assay [4] it was 94%; in assay [5], 94.6%; in assay [6], 93.9%. Further, the figures for the Activity in assay [7] and in assay [8] were 95.8% and 101%, respectively.
Take `CC[C@H](Nc1ncnc2[nH]cnc12)c1nc2cccc(F)c2c(=O)n1-c1ccccc1`: the Activity in assay [1] amounted to 96.2%; in assay [2], 96.6%; in assay [3], 94.3%; in assay [4], 91.2%; in assay [5], 94.6%; in assay [6] it was 98%. For the same compound, the Activity in assay [7] came to 94.1%; in assay [8], 97.3%.
With `CC(C)Oc1ccc(-c2nn([C@@H](C)c3oc4ccc(F)cc4c(=O)c3-c3cccc(F)c3)c3ncnc(N)c23)cc1F` [UMBRALISIB], the Activity in assay [1] was found to be 99%; in assay [2] it was 104%; in assay [3], 91.2%; in assay [4], 97.6%; in assay [5], 92.8%; in assay [6], 95.5%. The Activity in assay [7] was 96%; in assay [8], 98.7%.
